According to US20230085307A1, “PYRIDAZINONE COMPOUND AND HERBICIDE” (NISSAN CHEMICAL CORPORATION, priority 2019, published 2023):

Legend:
late watergrass = assay: Test Example 1: herbicidal activity, application before weed generation under submerged conditions (Table 16, symbol A); format: in vivo, late watergrass (Echinochloa oryzicola); settings: amount of applied herbicide 320 g/ha
Summary of the method: (§1)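 Submerged Wagner pots (alluvial soil, 4 cm water) sown with weed seeds and planted with 2.5-leaf rice seedlings; emulsifiable concentrate diluted in water applied to water surface on sowing day. Held in greenhouse at 25-30 °C; injury scored 0-5 by herbicidal rate after three weeks.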

Japanese bulrush = assay: Test Example 1: herbicidal activity, application before weed generation under submerged conditions (Table 16, symbol B); format: in vivo, Japanese bulrush (Schoenoplectus juncoides); settings: amount of applied herbicide 320 g/ha
Summary of the method: as §1

oval-leafed pondweed = assay: Test Example 1: herbicidal activity, application before weed generation under submerged conditions (Table 16, symbol C); format: in vivo, oval-leafed pondweed (Monochoria vaginalis); settings: amount of applied herbicide 320 g/ha
Summary of the method: as §1

barnyard grass [1] = assay: Test Example 3: herbicidal effect by foliage application, Wagner pot (Table 18, symbol H); format: in vivo, barnyard grass (Echinochloa crus-galli); settings: for herbicidal effect on barnyard grass (H): 320 g/ha
Summary of the method: (§2)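 Plants were sown in alluvial soil held under 0.1–0.5 cm standing water and grown 14 days in a greenhouse at 25–30 °C. An emulsifiable formulation, water-diluted to the set dose, was then sprayed onto the foliage, and effects were scored three weeks later using previously defined criteria.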

Chinese sprangletop = assay: Test Example 3: herbicidal effect by foliage application, Wagner pot (Table 18, symbol D); format: in vivo, chinese sprangletop (Leptochloa chinensis); settings: for herbicidal effect on Chinese sprangletop (D): 320 g/ha
Summary of the method: as §2

rice flat sedge = assay: Test Example 3: herbicidal effect by foliage application, Wagner pot (Table 18, symbol E); format: in vivo, rice flat sedge (Cyperus iria); settings: for herbicidal effect on rice flat sedge (E): 320 g/ha
Summary of the method: as §2

southern crabgrass = assay: Test Example 5: herbicidal effect by foliage application, plastic box (Table 20, symbol F); format: in vivo, southern crabgrass (Digitaria ciliaris); settings: 320 g/ha; for herbicidal effect on F: southern crabgrass (evaluation grade 0-5): foliage application after 14-day growth, evaluated three weeks after application
Summary of the method: (§3)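 Foliar spray test: emulsion formulation diluted in water to a set application rate, sprayed onto 14-day-old plants raised in diluvial soil at 25° C to 30° C under glass. Both herbicidal effect and crop effect rated visually three weeks later.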

green foxtail = assay: Test Example 5: herbicidal effect by foliage application, plastic box (Table 20, symbol G); format: in vivo, green foxtail (Setaria viridis); settings: 320 g/ha; for herbicidal effect on G: green foxtail (evaluation grade 0-5): foliage application after 14-day growth, evaluated three weeks after application
Summary of the method: as §3

barnyard grass [2] = assay: Test Example 5: herbicidal effect by foliage application, plastic box (Table 20, symbol H); format: in vivo, barnyard grass (Echinochloa crus-galli); settings: 320 g/ha; for herbicidal effect on H: barnyard grass (evaluation grade 0-5): foliage application after 14-day growth, evaluated three weeks after application
Summary of the method: as §3

wild oat = assay: Test Example 5: herbicidal effect by foliage application, plastic box (Table 20, symbol I); format: in vivo, wild oat (Avena fatua); settings: 320 g/ha; for herbicidal effect on I: wild oat (evaluation grade 0-5): foliage application after 14-day growth, evaluated three weeks after application
Summary of the method: as §3

blackgrass = assay: Test Example 5: herbicidal effect by foliage application, plastic box (Table 20, symbol J); format: in vivo, blackgrass (Alopecurus myosuroides); settings: 320 g/ha; for herbicidal effect on J: blackgrass (evaluation grade 0-5): foliage application after 14-day growth, evaluated three weeks after application
Summary of the method: as §3

Italian ryegrass = assay: Test Example 5: herbicidal effect by foliage application, plastic box (Table 20, symbol K); format: in vivo, Italian ryegrass (Lolium multiflorum); settings: 320 g/ha; for herbicidal effect on K: Italian ryegrass (evaluation grade 0-5): foliage application after 14-day growth, evaluated three weeks after application
Summary of the method: as §3

windgrass = assay: Test Example 5: herbicidal effect by foliage application, plastic box (Table 20, symbol L); format: in vivo, windgrass (Apera spica-venti); settings: 320 g/ha; for herbicidal effect on L: windgrass (evaluation grade 0-5): foliage application after 14-day growth, evaluated three weeks after application
Summary of the method: as §3

velvetleaf = assay: Test Example 5: herbicidal effect by foliage application, plastic box (Table 20, symbol M); format: in vivo, velvetleaf (Abutilon theophrasti); settings: 320 g/ha; for herbicidal effect on M: velvetleaf (evaluation grade 0-5): foliage application after 14-day growth, evaluated three weeks after application
Summary of the method: as §3

redroot pigweed = assay: Test Example 5: herbicidal effect by foliage application, plastic box (Table 20, symbol N); format: in vivo, redroot pigweed (Amaranthus retroflexus); settings: 320 g/ha; for herbicidal effect on N: redroot pigweed (evaluation grade 0-5): foliage application after 14-day growth, evaluated three weeks after application
Summary of the method: as §3

lambsquarters = assay: Test Example 5: herbicidal effect by foliage application, plastic box (Table 20, symbol O); format: in vivo, lambsquarters (Chenopodium album); settings: 320 g/ha; for herbicidal effect on O: lambsquarters (evaluation grade 0-5): foliage application after 14-day growth, evaluated three weeks after application
Summary of the method: as §3

chickweed = assay: Test Example 5: herbicidal effect by foliage application, plastic box (Table 20, symbol P); format: in vivo, common chickweed (Stellaria media); settings: 320 g/ha; for herbicidal effect on P: chickweed (evaluation grade 0-5): foliage application after 14-day growth, evaluated three weeks after application
Summary of the method: as §3

persian speedwell = assay: Test Example 5: herbicidal effect by foliage application, plastic box (Table 20, symbol R); format: in vivo, Persian speedwell (Veronica persica); settings: 320 g/ha; for herbicidal effect on R: persian speedwell (evaluation grade 0-5): foliage application after 14-day growth, evaluated three weeks after application
Summary of the method: as §3

[3] = amount of applied herbicide 320 g/ha
[4] = foliage application, three weeks after application

Row | SMILES | Herbicidal effect, A: late watergrass (late watergrass) | Herbicidal effect, B: Japanese bulrush (Japanese bulrush) | Herbicidal effect, C: oval-leafed pondweed (oval-leafed pondweed) | herbicidal effect on barnyard grass (H) (barnyard grass [1]) | herbicidal effect on Chinese sprangletop (D) (Chinese sprangletop) | herbicidal effect on rice flat sedge (E) (rice flat sedge) | herbicidal effect on F: southern crabgrass (evaluation grade 0-5) (southern crabgrass) | herbicidal effect on G: green foxtail (evaluation grade 0-5) (green foxtail) | herbicidal effect on H: barnyard grass (evaluation grade 0-5) (barnyard grass [2]) | herbicidal effect on I: wild oat (evaluation grade 0-5) (wild oat) | herbicidal effect on J: blackgrass (evaluation grade 0-5) (blackgrass) | herbicidal effect on K: Italian ryegrass (evaluation grade 0-5) (Italian ryegrass) | herbicidal effect on L: windgrass (evaluation grade 0-5) (windgrass) | herbicidal effect on M: velvetleaf (evaluation grade 0-5) (velvetleaf) | herbicidal effect on N: redroot pigweed (evaluation grade 0-5) (redroot pigweed) | herbicidal effect on O: lambsquarters (evaluation grade 0-5) (lambsquarters) | herbicidal effect on P: chickweed (evaluation grade 0-5) (chickweed) | herbicidal effect on R: persian speedwell (evaluation grade 0-5) (persian speedwell) | further results
1 | COc1ccccc1-c1sc2cc(F)ccc2c1-c1c(OCC(=O)c2ccccc2)c(C)nn(C)c1=O [3-030] | 2 (Herbicidal rate of 20% or more and less than 40%) | 0 (Herbicidal rate of 5% or less (almost no effect)) | 3 (Herbicidal rate of 40% or more and less than 70%) | – | – | – | – | – | – | – | – | – | – | – | – | – | – | – | herbicidal effect on H: barnyard grass (barnyard grass [1]; [3]): 4 (Herbicidal rate of 70% or more and less than 90%); herbicidal effect on D: Chinese sprangletop (Chinese sprangletop; [3]): 2 (Herbicidal rate of 20% or more and less than 40%); herbicidal effect on E: rice flat sedge (rice flat sedge; [3]): 0 (Herbicidal rate of 5% or less (almost no effect)); F: southern crabgrass, herbicidal effect grade (southern crabgrass; [4]): 0 (Herbicidal rate of 5% or less (almost no effect)); G: green foxtail, herbicidal effect grade (green foxtail; [4]): 1 (Herbicidal rate of 5% or more and less than 20%); H: barnyard grass, herbicidal effect grade (barnyard grass [2]; [4]): 0 (Herbicidal rate of 5% or less (almost no effect)); I: wild oat, herbicidal effect grade (wild oat; [4]): 0 (Herbicidal rate of 5% or less (almost no effect)); J: blackgrass, herbicidal effect grade (blackgrass; [4]): 3 (Herbicidal rate of 40% or more and less than 70%); K: Italian ryegrass, herbicidal effect grade (Italian ryegrass; [4]): 0 (Herbicidal rate of 5% or less (almost no effect)); L: windgrass, herbicidal effect grade (windgrass; [4]): 0 (Herbicidal rate of 5% or less (almost no effect)); M: velvetleaf, herbicidal effect grade (velvetleaf; [4]): 3 (Herbicidal rate of 40% or more and less than 70%); N: redroot pigweed, herbicidal effect grade (redroot pigweed; [4]): 3 (Herbicidal rate of 40% or more and less than 70%); O: lambsquarters, herbicidal effect grade (lambsquarters; [4]): 1 (Herbicidal rate of 5% or more and less than 20%); P: chickweed, herbicidal effect grade (chickweed; [4]): 3 (Herbicidal rate of 40% or more and less than 70%); R: persian speedwell, herbicidal effect grade (persian speedwell; [4]): 0 (Herbicidal rate of 5% or less (almost no effect))
2 | COc1ccc2c(-c3c(OCC#N)c(C)nn(C)c3=O)c(-c3ccccc3OC)sc2c1 [3-153] | 3 (Herbicidal rate of 40% or more and less than 70%) | 3 (Herbicidal rate of 40% or more and less than 70%) | 3 (Herbicidal rate of 40% or more and less than 70%) | 5 (Herbicidal rate of 90% or more (almost completely withered)) | 2 (Herbicidal rate of 20% or more and less than 40%) | 0 (Herbicidal rate of 5% or less (almost no effect)) | 3 (Herbicidal rate of 40% or more and less than 70%) | 5 (Herbicidal rate of 90% or more (almost completely withered)) | 5 (Herbicidal rate of 90% or more (almost completely withered)) | 0 (Herbicidal rate of 5% or less (almost no effect)) | 3 (Herbicidal rate of 40% or more and less than 70%) | 0 (Herbicidal rate of 5% or less (almost no effect)) | 4 (Herbicidal rate of 70% or more and less than 90%) | 5 (Herbicidal rate of 90% or more (almost completely withered)) | 4 (Herbicidal rate of 70% or more and less than 90%) | 4 (Herbicidal rate of 70% or more and less than 90%) | 5 (Herbicidal rate of 90% or more (almost completely withered)) | 4 (Herbicidal rate of 70% or more and less than 90%) | –
3 | COc1ccc(-c2sc3c(F)cccc3c2-c2c(O)c(C)nn(C)c2=O)cc1OC [4-013] | 3 (Herbicidal rate of 40% or more and less than 70%) | 0 (Herbicidal rate of 5% or less (almost no effect)) | 3 (Herbicidal rate of 40% or more and less than 70%) | 3 (Herbicidal rate of 40% or more and less than 70%) | 3 (Herbicidal rate of 40% or more and less than 70%) | 4 (Herbicidal rate of 70% or more and less than 90%) | 1 (Herbicidal rate of 5% or more and less than 20%) | 5 (Herbicidal rate of 90% or more (almost completely withered)) | 1 (Herbicidal rate of 5% or more and less than 20%) | 0 (Herbicidal rate of 5% or less (almost no effect)) | 3 (Herbicidal rate of 40% or more and less than 70%) | 4 (Herbicidal rate of 70% or more and less than 90%) | 0 (Herbicidal rate of 5% or less (almost no effect)) | 3 (Herbicidal rate of 40% or more and less than 70%) | 0 (Herbicidal rate of 5% or less (almost no effect)) | 0 (Herbicidal rate of 5% or less (almost no effect)) | 5 (Herbicidal rate of 90% or more (almost completely withered)) | 5 (Herbicidal rate of 90% or more (almost completely withered)) | –
